Laboratory results as given in ChEMBL document CHEMBL1148138, “New eremophilenolides from Ligulariopsis shichuana” (2002).

What was measured:
Escherichia coli = assay: Antibacterial activity against Escherichia coli at 100 ug/mL after 24 hrs by cup-plate method; format: functional; settings: read-out: Diameter of inhibition zone
Bacillus subtilis = assay: Antibacterial activity against Bacillus subtilis at 100 ug/mL after 24 hrs by cup-plate method; format: functional; settings: read-out: Diameter of inhibition zone

Row | Compound | zone of inhibition at 100 µg/mL (Escherichia coli) [mm] | zone of inhibition at 100 µg/mL (Bacillus subtilis) [mm]
1 | C/C=C(/C)C(=O)O[C@@H]1[C@@]23O[C@@H]2C[C@H](OC(C)=O)[C@H](C)[C@@]3(C)CC2=C(C)C(=O)O[C@@]21O | 13 | 13
2 | CC(C)=CC(=O)O[C@H]1C[C@H]2O[C@]23C[C@@]2(O)OC(=O)C(C)=C2C[C@]3(C)[C@H]1C | 13 | 16
3 | O=C(N[C@H](CO)[C@H](O)c1ccc([N+](=O)[O-])cc1)C(Cl)Cl [CHLORAMPHENICOL] | 16 | 16
